The values that follow are results of earlier work, collected in US20110136741A1 (priority 2008, published 2011).

The target in one data set is subtype sst2 receptors (Homo sapiens, UniProt P30874).
The target of another data set is hsst2 (Homo sapiens, UniProt P30874).
Sequence of hsst2 (P30874 whole entry): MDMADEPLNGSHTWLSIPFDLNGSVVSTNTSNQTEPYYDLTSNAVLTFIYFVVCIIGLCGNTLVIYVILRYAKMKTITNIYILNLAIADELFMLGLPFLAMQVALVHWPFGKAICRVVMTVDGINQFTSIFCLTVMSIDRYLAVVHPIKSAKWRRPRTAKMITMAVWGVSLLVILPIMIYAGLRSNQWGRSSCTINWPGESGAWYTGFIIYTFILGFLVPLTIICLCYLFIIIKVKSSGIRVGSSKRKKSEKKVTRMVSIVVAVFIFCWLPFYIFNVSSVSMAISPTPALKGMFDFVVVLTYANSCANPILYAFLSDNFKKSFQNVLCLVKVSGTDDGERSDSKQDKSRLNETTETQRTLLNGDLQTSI

Sequence of subtype sst2 receptors (P30874 whole entry): as above

Take `C[C@@H](O)[C@@H]1NC(=O)[C@H](CCCCN)NC(=O)[C@@H](Cc2c[nH]c3ccccc23)NC(=O)[C@H](Cc2ccccc2)NC(=O)[C@@H](NC(=O)[C@H](N)Cc2ccccc2)CSSC[C@@H](C(=O)N[C@H](CO)[C@@H](C)O)NC1=O` [octreotide]: at subtype sst2 receptors, the “affinity for subtype sst2 receptors” value is on record as “very high affinity”. Further, at hsst2, the “activity towards hsst2 receptor” value is reported as “very active”.

On to `CC(O)[C@@H]1NC(=O)[C@H](CCCCN)NC(=O)[C@H](Cc2c[nH]c3ccccc23)NC(=O)[C@H](Cc2ccccc2)NC(=O)[C@H](Cc2ccccc2)NC(=O)[C@H](CC(N)=O)NC(=O)[C@H](CCCCN)NC(=O)[C@@H](NC(=O)CNC(=O)[C@H](C)N)CSSC[C@@H](C(=O)O)NC(=O)[C@H](CO)NC(=O)[C@H]([C@@H](C)O)NC(=O)[C@H](Cc2ccccc2)NC1=O` (stereo partly drawn) [somatostatin, Somatostatin-14], for which the half-life in blood was under 3 min.
